Test results from patent US20240287138A1, “CYCLIC PEPTIDES FOR INHIBITING TNF RECEPTOR 1 ACTIVITY” (Merck Sharp & Dohme LLC, priority 2023, published 2024).
Like-named read-outs stand apart in the source and are kept apart here. Numbered stars: 1 amine (or outer) side, 2 acyl side, 3 side chain; on linkers, the order of the positions; unused ones are H or OH. Bridge positions count the residues as written; N and C are the ends. Square brackets hold non-standard residues; d marks the D form. Peptide text beside a SMILES is read from it. * marks the point of attachment. Trp(βS-Me,7-OMe) = COc1cccc2c([C@H](C)[C@H](N)C(=O)O)c[nH]c12; Ala(1-bicyclo(1.1.1)pentyl) = N[C@@H](CC12CC(C1)C2)C(=O)O; Trp(1-CH2COOH) = N[C@@H](Cc1cn(CC(=O)O)c2ccccc12)C(=O)O; Morpholine(3S-CO,6,6-Me2) = CC1(C)CN[C@H](C(=O)O)CO1; Trp(7-CN) = N#Cc1cccc2c(C[C@H](N)C(=O)O)c[nH]c12; Trp(7-Cl) = N[C@@H](Cc1c[nH]c2c(Cl)cccc12)C(=O)O; Phe(4-CONH2) = NC(=O)c1ccc(C[C@H](N)C(=O)O)cc1; Phe(4-COOH) = N[C@@H](Cc1ccc(C(=O)O)cc1)C(=O)O; X30 = O=C([C@@H](N[*:1])[C@H](O)c1ccncc1)[*:2]; Pip(5R-OH) = O=C(O)[C@@H]1CC[C@@H](O)CN1; X13 = O=C([C@H]1CC[C@@H](N[*:1])C1)[*:2]; X1 = O=C([C@@H]1CC[C@H](N[*:1])C1)[*:2]; X53 = O=C([C@H](Cc1ccncc1F)N[*:1])[*:2]; Pip(4-aza) = O=C(O)[C@@H]1CNCCN1; 4Pal = N[C@@H](Cc1ccncc1)C(=O)O; NMeE = CN[C@@H](CCC(=O)O)C(=O)O; dHyp = O=C(O)[C@H]1C[C@H](O)CN1; αMeS = C[C@](N)(CO)C(=O)O; Carboxymethyl = O=C(O)C*; Nle = CCCC[C@H](N)C(=O)O; Sar = CNCC(=O)O

How the values were obtained:
[1] = target: T1, human soluble TNFR1 (sTNFR1) (Homo sapiens, UniProt P19438); assay: Human sTNFR1-peptide displacement assay (LanthaScreen Eu TR-FRET binding assay)
T1 construct: made in house; host or cells: Sf21 (baculovirus)
T1 sequence (P19438 with tags, fused parts or gaps): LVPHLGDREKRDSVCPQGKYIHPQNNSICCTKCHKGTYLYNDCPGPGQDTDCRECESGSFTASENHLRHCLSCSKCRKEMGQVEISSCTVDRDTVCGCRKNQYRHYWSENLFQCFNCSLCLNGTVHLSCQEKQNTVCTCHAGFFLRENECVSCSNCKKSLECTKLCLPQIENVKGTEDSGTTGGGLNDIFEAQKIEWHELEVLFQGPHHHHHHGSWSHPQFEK
In short: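 Readout is the 665/615 nm TR-FRET ratio (Eu anti-His donor, streptavidin-Alexa647 acceptor), normalized to DMSO and saturating displacer, fit by Morrison-based five-parameter logistic for Kd^app. His-tagged sTNFR1 (1-211) prebound to 100 nM biotinylated peptide SEQ ID NO.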

[2] = target: T2, TNFα-induced NF-κB signal transduction pathway (TNFR1 signaling) in THP-1 cells (Homo sapiens, UniProt P19438); assay: THP-1 Lucia NF-κB reporter cell assay, inhibition of TNFα-induced NF-κB signaling; assay type: cell-based; details: THP-1 NF-κB Lucia reporter cells, 10 ng/mL TNFα, 16-18 h, secreted luciferase; read-out: THP-1 IC50
T2 sequence (P19438 30-455): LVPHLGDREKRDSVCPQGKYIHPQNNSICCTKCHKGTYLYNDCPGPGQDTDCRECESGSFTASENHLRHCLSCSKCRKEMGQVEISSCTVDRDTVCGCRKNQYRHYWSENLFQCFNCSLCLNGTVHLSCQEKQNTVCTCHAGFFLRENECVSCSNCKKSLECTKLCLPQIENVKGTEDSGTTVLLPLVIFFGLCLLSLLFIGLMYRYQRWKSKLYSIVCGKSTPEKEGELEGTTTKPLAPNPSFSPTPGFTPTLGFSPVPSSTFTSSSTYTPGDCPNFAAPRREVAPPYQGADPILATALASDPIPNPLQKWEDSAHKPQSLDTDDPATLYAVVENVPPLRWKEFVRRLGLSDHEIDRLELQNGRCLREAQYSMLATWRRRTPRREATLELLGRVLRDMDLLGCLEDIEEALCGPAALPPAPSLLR
In short: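 THP-1 Lucia NF-κB cells, 20k/well, no selection antibiotics; peptide pre-inc 1 h 37 °C; + recombinant human TNFα 10 ng/mL final; o.n.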

Structure (SMILES)	Kd [1]	IC50 [2]	IC50 [1]	Kd ([1]; displacement of biotinylated peptide SEQ ID NO. 1 from sTNFR1, 20 point titration, 5-parameter fit based on Morrison equation (tight binding), read-out: TR-FRET Kd^app)	IC50 ([1]; displacement of biotinylated peptide SEQ ID NO. 1 from sTNFR1, weaker binders, 10 pts titration, 4-parameter logistic model, read-out: TR-FRET, IC50)
CCCC[C@@H]1NC(=O)[C@@H]2CC[C@@H](C2)NC(=O)[C@H]([C@@H](C)c2c[nH]c3c(OC)cccc23)NC(=O)CN(C)C(=O)[C@H](Cc2ccc(O)cc2)NC(=O)[C@H](Cc2ccc(C(=O)O)cc2)NC(=O)[C@](C)(CO)NC(=O)[C@H](Cc2c[nH]c3c(Cl)cccc23)NC(=O)[C@H](Cc2ccncc2F)NC(=O)[C@H](CC(N)=O)NC(=O)[C@H](CCC(=O)O)N(C)C(=O)[C@H](Cc2c[nH]c3ccccc23)NC(=O)[C@@H]2CNCCN2C(=O)[C@H](Cc2ccncc2)NC1=O [SEQ ID NO. 198] (cyclo([4Pal][Pip(4-aza)]W[NMeE]N[X53][Trp(7-Cl)][αMeS][Phe(4-COOH)]Y[Sar][Trp(βS-Me,7-OMe)][X1][Nle]))	310 pM	800 pM			
COc1cccc2c([C@H](C)[C@@H]3NC(=O)CN(C)C(=O)[C@H](Cc4ccc(O)cc4)NC(=O)[C@H](Cc4ccc(C(=O)O)cc4)NC(=O)[C@](C)(CO)NC(=O)[C@H](Cc4c[nH]c5c(Cl)cccc45)NC(=O)[C@H](Cc4ccncc4)NC(=O)[C@H](CC(N)=O)NC(=O)[C@H](CCC(=O)O)N(C)C(=O)[C@H](Cc4c[nH]c5ccccc45)NC(=O)[C@@H]4CNCCN4C(=O)[C@H](Cc4ccncc4)NC(=O)[C@H](CC45CC(C4)C5)NC(=O)[C@@H]4CC[C@@H](C4)NC3=O)c[nH]c12 [SEQ ID NO. 190] (cyclo([4Pal][Trp(7-Cl)][αMeS][Phe(4-COOH)]Y[Sar][Trp(βS-Me,7-OMe)][X1][Ala(1-bicyclo(1.1.1)pentyl)][4Pal][Pip(4-aza)]W[NMeE]N))	330 pM	1600 pM			
CCCC[C@@H]1NC(=O)[C@@H]2CC[C@@H](C2)NC(=O)[C@H]([C@@H](C)c2c[nH]c3c(OC)cccc23)NC(=O)CN(C)C(=O)[C@H](Cc2ccc(C(N)=O)cc2)NC(=O)[C@H](Cc2ccc(C(N)=O)cc2)NC(=O)[C@](C)(CO)NC(=O)[C@H](Cc2c[nH]c3c(C#N)cccc23)NC(=O)[C@H]([C@H](O)c2ccncc2)NC(=O)[C@H](CC(N)=O)NC(=O)[C@H]2C[C@H](OCC(=O)O)CN2C(=O)[C@H](Cc2cn(CC(=O)O)c3ccccc23)NC(=O)[C@@H]2CC[C@@H](O)CN2C(=O)[C@H](Cc2ccncc2)NC1=O [SEQ ID NO. 129] (cyclo([4Pal][Pip(5R-OH)][Trp(1-CH2COOH)][dHyp](Carboxymethyl)N[X30][Trp(7-CN)][αMeS][Phe(4-CONH2)][Phe(4-CONH2)][Sar][Trp(βS-Me,7-OMe)][X1][Nle]))	480 pM	3100 pM			
CCCC[C@@H]1NC(=O)CSC[C@@H](C(N)=O)NC(=O)[C@H]([C@@H](C)c2c[nH]c3c(OC)cccc23)NC(=O)CN(C)C(=O)[C@H](Cc2ccc(O)cc2)NC(=O)[C@H](Cc2ccc(C(N)=O)cc2)NC(=O)[C@](C)(CO)NC(=O)[C@H](Cc2c[nH]c3c(Cl)cccc23)NC(=O)[C@H](Cc2ccc(C(=O)O)cc2)NC(=O)[C@H](CC(N)=O)NC(=O)[C@H]2C[C@H](O)CN2C(=O)[C@H](Cc2c[nH]c3ccccc23)NC(=O)[C@@H]2CC[C@@H](O)CN2C(=O)[C@H](Cc2ccncc2)NC1=O [SEQ ID NO. 185] ({CH2CO}-[Nle][4Pal][Pip(5R-OH)]W[dHyp]N[Phe(4-COOH)][Trp(7-Cl)][αMeS][Phe(4-CONH2)]Y[Sar][Trp(βS-Me,7-OMe)]C-NH2; thioether N-14)	160 pM	900 pM	200 pM		
CCCC[C@@H]1NC(=O)[C@H]2CC[C@H](C2)NC(=O)[C@H]([C@@H](C)c2c[nH]c3c(OC)cccc23)NC(=O)CN(C)C(=O)[C@H](Cc2ccc(O)cc2)NC(=O)[C@H](Cc2ccc(C(N)=O)cc2)NC(=O)[C@](C)(CO)NC(=O)[C@H](Cc2c[nH]c3c(Cl)cccc23)NC(=O)[C@H](Cc2ccncc2)NC(=O)[C@H](CC(N)=O)NC(=O)[C@H](CCC(=O)O)N(C)C(=O)[C@H](Cc2c[nH]c3ccccc23)NC(=O)[C@@H]2COC(C)(C)CN2C(=O)[C@H](Cc2ccncc2)NC1=O [SEQ ID NO. 214] (cyclo([4Pal][Trp(7-Cl)][αMeS][Phe(4-CONH2)]Y[Sar][Trp(βS-Me,7-OMe)][X13][Nle][4Pal][Morpholine(3S-CO,6,6-Me2)]W[NMeE]N))		3700 pM		610 pM	950 pM
